Earlier results, collected in EP3331513B1, “HYDROALCOHOLIC SOLUTIONS COLOURED WITH CHLORHEXIDINE, METHODS FOR THE PRODUCTION THEREOF, AND USES OF SAME” (Université Claude Bernard Lyon I, priority 2015, dated 2017).

solubilité dans les alcools (alcools primaires en C2 et C3, notamment éthanol): assez soluble
solubilité dans l'eau (eau): miscible à l'eau
Structure (SMILES): [H]/N=C(\N/C(=N/[H])NCCCCCCNC(=N)NC(=N)Nc1ccc(Cl)cc1)Nc1ccc(Cl)cc1 [digluconate de chlorhexidine]
